Laboratory results: patent US6486173B2, “5-HT7 receptor antagonists” (Bristol-Myers Squibb Pharma Company, priority 1998, dated 2002)

target: 5-HT7 receptor (Homo sapiens, UniProt P34969); settings: background statement; profile consistent across species; cited from earlier work
Sequence (P34969 whole entry): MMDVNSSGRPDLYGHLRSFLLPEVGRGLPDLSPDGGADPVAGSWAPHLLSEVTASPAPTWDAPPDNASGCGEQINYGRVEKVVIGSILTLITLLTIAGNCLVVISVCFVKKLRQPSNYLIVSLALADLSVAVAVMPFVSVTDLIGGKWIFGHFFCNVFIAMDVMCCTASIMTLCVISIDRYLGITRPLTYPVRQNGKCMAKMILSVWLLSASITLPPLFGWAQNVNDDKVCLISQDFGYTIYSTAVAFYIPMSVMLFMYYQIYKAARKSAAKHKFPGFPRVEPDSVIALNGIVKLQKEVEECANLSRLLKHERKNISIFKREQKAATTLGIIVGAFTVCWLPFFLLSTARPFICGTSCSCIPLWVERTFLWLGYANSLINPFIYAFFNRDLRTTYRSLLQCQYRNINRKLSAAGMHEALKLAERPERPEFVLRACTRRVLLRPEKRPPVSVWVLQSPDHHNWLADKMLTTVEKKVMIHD

Compound | 5-HT7 receptor affinity
5-HT [Example 5-HT] | high 5-HT7 receptor affinity
O=C1CC2(CCCC2)CC(=O)N1CCCCN1CCN(c2ncccn2)CC1 [buspirone] | low affinity
Cc1nc2sccn2c(=O)c1CCN1CCC(=C(c2ccc(F)cc2)c2ccc(F)cc2)CC1 [ritanserin] | moderate affinity
CNS(=O)(=O)Cc1ccc2[nH]cc(CCN(C)C)c2c1 [sumatriptan] | low affinity

same assay, conditions: cited from earlier work

Compound | 5-HT7 receptor affinity
COc1ccc2[nH]cc(CCN)c2c1 [Example 5-MeOT, 5-MeOT] | high 5-HT7 receptor affinity
CCCN(CCC)C1CCc2cccc(O)c2C1 (stereo not drawn) [Example 8-OHDPAT, 8-OHDPAT] | moderate affinity
CC(C)NCC(O)COc1cccc2[nH]ccc12 (stereo not drawn) [pindolol] | low affinity

system: not given; settings: not given

Compound | melting point
Fc1ccc(C2(CCCN3Cc4ccccc4C3)OCCO2)cc1.O=C(O)/C=C\C(=O)O | 141 to 142 °C
O=C(CCCN1CCc2ccccc2C1)c1ccc(F)cc1.O=C(O)/C=C\C(=O)O | 129 to 130 °C
O=C(CCCN1Cc2cc3ccccc3cc2C1)c1ccc(F)cc1.O=C(O)/C=C\C(=O)O | 157 to 158 °C
O=C(CCCN1CCc2ccccc2C1)c1ccncc1.O=C(O)/C=C\C(=O)O | 108 to 109 °C
O=C(CCCN1Cc2cccc3cccc(c23)C1)c1ccc(F)cc1.O=C(O)/C=C\C(=O)O | 151 to 155 °C
O=C(CCCN1CCc2ccccc2C1)c1cccs1.O=C(O)/C=C\C(=O)O | 154 to 155 °C
COc1cc2c(cc1OC)CN(CCCC(=O)c1ccc(F)cc1)CC2.O=C(O)/C=C\C(=O)O | 144 to 146 °C
O=C(O)/C=C\C(=O)O.O=c1[nH]c2ccccc2n1CCCN1CCc2ccccc2C1 | 153 to 154 °C
O=C(O)/C=C\C(=O)O.c1ccc(-c2cc(CN3CCc4ccccc4C3)on2)cc1 | 190 to 192 °C
Fc1ccc(OCCCN2Cc3ccccc3C2)cc1.O=C(O)/C=C\C(=O)O | 115 to 117 °C
Cl.Fc1ccc(SCCCN2CCc3ccccc3C2)cc1 | 171 to 173 °C
Cl.Fc1ccc(SCCCN2Cc3ccccc3C2)cc1 | 125 to 126 °C
O=C(O)/C=C\C(=O)O.O=S(=O)(CCCN1Cc2ccccc2C1)c1ccc(F)cc1 | 151 to 152 °C
Cl.O=S(=O)(CCCN1CCc2ccccc2C1)c1ccc(F)cc1 | 212 to 215 °C
Cc1ccc(C2(CCCN3Cc4ccccc4C3)OCCO2)cc1.O=C(O)/C=C\C(=O)O | 159 to 161 °C (dec.)
Cl.O=S(=O)(c1ccc(F)cc1)N1CCC(N2CCc3ccccc3C2)CC1 | > 240 °C
Fc1ccc(C2(CCCN3CCc4ccccc4C3)OCCO2)cc1.O=C(O)/C=C\C(=O)O | 160 to 162 °C
O=C(O)/C=C\C(=O)O.OC(CCCN1Cc2ccccc2C1)c1ccc(F)cc1 (stereo not drawn) | 113 to 114 °C
O=C(CCCN1CC[C@@H]2CCCC[C@H]2C1)c1ccc(F)cc1.O=C(O)/C=C\C(=O)O (racemic) | 157 to 158 °C
Fc1ccc(C2=NOC(CN3CCc4ccccc4C3)C2)cc1.O=C(O)/C=C\C(=O)O (racemic) | 153 to 155 °C
